Test [1] deals with T1, EP2 (Homo sapiens (Human), UniProt P43116). Kind of test: EP2 radioligand competition binding ([3H]PGE2). Conditions: HEK-293 cells stably expressing receptor, [3H]PGE2 radioligand. How it is done: Competition binding experiments were performed in a medium containing Hank's balanced salt solution, Hepes 20 mM, pH 7.3, membranes (˜60 μg protein) or 2×10^5 cells from HEK 293 cells stably expressing human EP2 receptors, [^3H]PGE2 (10 nM) and various concentrations of test compounds in a total volume of 300 μl. Reaction mixtures were incubated at 23° C. for 60 min, and were filtered over Whatman GF/B filters under vacuum. Filters were washed three times with 5 ml ice-cold buffer containing 50 mM Tris/HCl (pH 7.3). Non-specific binding was estimated in the presence of excess unlabeled PGE2 (10 μM). Binding data fitted to the binding model for a single class of binding sites, using nonlinear regression analysis. IC50 values thus obtained were converted to Ki using the equation of Ki=(IC50/(1+[L]/KD) where [L] represents PGE2 concentration (10 nM) and KD the dissociation constant for [^3H]PGE2 at human EP2 receptors (40 nM). […]
T1 sequence (P43116 whole entry): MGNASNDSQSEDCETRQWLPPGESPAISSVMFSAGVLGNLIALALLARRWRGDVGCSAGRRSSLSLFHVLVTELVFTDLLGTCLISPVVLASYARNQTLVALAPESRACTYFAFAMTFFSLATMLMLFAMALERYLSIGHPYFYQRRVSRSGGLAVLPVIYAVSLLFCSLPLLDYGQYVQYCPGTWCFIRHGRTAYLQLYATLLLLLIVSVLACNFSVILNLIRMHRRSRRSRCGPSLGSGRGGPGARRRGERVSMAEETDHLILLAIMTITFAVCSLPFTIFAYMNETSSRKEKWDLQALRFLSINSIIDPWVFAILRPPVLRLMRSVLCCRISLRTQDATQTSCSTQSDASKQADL
The cell homogenate was centrifuged at 19000 r.p.m. for 20 min at 4° C. using a Beckman Ti-60 rotor. The resultant pellet was resuspended in TME buffer to give a final 1 mg/ml protein concentration, as determined by Biorad assay. […]
[^3H—] […] 17-phenyl PGF2a and non-specific binding determined with 10^−5M of unlabeled PGE2, or 17-phenyl PGF2a, according to receptor subtype studied.

Test [2] addresses T2, EP4 (Homo sapiens (Human), UniProt P35408). Kind of test: EP4 radioligand competition binding ([3H]PGE2). The following applies: HEK-293 cells stably expressing receptor, [3H]PGE2 radioligand. On the procedure:
HEK-293 cells stably expressing the human or feline FP receptor, or EP1, EP2, or EP4 receptors were washed with TME buffer, scraped from the bottom of the flasks, and homogenized for 30 sec using a Brinkman PT 10/35 polytron. TME buffer was added to achieve a final 40 ml volume in the centrifuge tubes (the composition of TME is 100 mM TRIS base, 20 mM MgCl2, […]; 10N HCl is added to achieve a pH of 7.4).
The cell homogenate was centrifuged at 19000 r.p.m. for 20 min at 4° C. using a Beckman Ti-60 rotor. The resultant pellet was resuspended in TME buffer to give a final 1 mg/ml protein concentration, as determined by Biorad assay. Radioligand binding competition assays vs. [^3H-]17-phenyl PGF2a (5 nM) were performed in a 100 μl volume for 60 min. Binding reactions were started by adding plasma membrane fraction. The reaction was terminated by the addition of 4 ml ice-cold TRIS-HCl buffer and rapid filtration through glass fiber GF/B filters using a Brandel cell harvester. The filters were washed 3 times with ice-cold buffer and oven dried for one hour.
[^3H—] PGE2 (specific activity 180 Ci mmol) was used as the radioligand for EP receptors. [^3H] 17-phenyl PGF2a was employed for FP receptor binding studies. […] 17-phenyl PGF2a and non-specific binding determined with 10^−5M of unlabeled PGE2, or 17-phenyl PGF2a, according to receptor subtype studied.

Test [3] deals with T1, EP2. Kind of test: EP2 cAMP functional assay. Format: cell-based.
Test [4] has as its target T2, EP4. Kind of test: EP4 cAMP functional assay. The class given is cell-based.

Molecules are shown by their SMILES.

T2 sequence (P35408 whole entry): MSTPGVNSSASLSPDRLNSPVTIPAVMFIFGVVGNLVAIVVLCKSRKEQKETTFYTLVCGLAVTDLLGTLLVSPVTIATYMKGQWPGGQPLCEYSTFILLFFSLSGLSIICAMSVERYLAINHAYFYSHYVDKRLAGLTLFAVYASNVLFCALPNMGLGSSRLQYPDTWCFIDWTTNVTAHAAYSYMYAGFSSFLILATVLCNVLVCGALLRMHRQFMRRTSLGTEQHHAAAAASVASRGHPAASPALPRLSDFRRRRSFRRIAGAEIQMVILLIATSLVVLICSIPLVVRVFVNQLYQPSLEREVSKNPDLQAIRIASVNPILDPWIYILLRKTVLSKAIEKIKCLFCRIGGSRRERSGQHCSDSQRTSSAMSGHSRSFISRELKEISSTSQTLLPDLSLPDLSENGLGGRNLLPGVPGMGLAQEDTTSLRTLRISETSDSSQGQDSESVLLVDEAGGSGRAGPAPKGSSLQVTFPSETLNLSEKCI

With `O=C(O)c1ccc(CCCN2[C@@H](/C=C/C(O)Cc3cccc(C(F)(F)F)c3)CCS2(=O)=O)s1` (stereo partly drawn) [Compound 14, 5-(3-((3R)-3-((E)-3-Hydroxy-4-(3-(trifluoromethyl)phenyl)but-1-en-1-yl)-1,1-dioxidoisothiazolidin-2-yl)propyl)thiophene-2-carboxylic acid], the EC50 is 96 nM at EP2 [1], 53 nM on EP4 [2], 38 nM on EP2 [3] and 1 nM at EP4 [4].

These data come from US9340534B2, “Compounds and methods for treating ocular diseases” (Allergan, Inc., priority 2014, dated 2016).
